For orientation: IC50 means the midpoint of a concentration-inhibition curve. By inhibition is commonly meant the change of the read-out against control, counted positive when it falls.

Bounds are passed on as bounds.

Chain of Recombinant human HSD17B13 enzyme (Q7Z5P4 20-300): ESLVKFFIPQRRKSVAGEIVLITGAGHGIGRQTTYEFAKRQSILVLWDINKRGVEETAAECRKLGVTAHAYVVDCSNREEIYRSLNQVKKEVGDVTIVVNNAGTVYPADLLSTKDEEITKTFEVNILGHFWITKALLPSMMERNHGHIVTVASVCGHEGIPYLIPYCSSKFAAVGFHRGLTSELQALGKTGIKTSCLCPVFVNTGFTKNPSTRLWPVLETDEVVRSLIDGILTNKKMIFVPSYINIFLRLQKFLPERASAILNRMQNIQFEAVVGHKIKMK

One experiment concerns the target Recombinant human HSD17B13 enzyme (Homo sapiens (Human), UniProt Q7Z5P4). In words: HSD17b13 NAD(P)H-Glo Biochemical Assay. As to conditions: 50 uM estradiol, 1 mM NAD+; read-out: HSD17β13 IC50. How it is done: Recombinant human HSD17B13 enzyme. Substrate: estradiol (Sigma β-Estradiol E8875), 100 mM in DMSO. […] Assay buffer final concentration: 20 mM Tris pH7.4 with 0.002% Tween-20 and 0.02% BSA. […] Enzymatic activity detected by NAD(P)H-Glo™ Detection System (Promega G9062).
Inhibitor compounds were serially diluted in DMSO and then further diluted in assay buffer to a 10× concentration consisting of 1% DMSO.
HSD17b13 enzyme was diluted in 1× assay buffer to the desired enzyme concentration based on the specific activity of the enzyme lot. 20 uL of diluted enzyme was added to each well along with 2.5 uL of 10× inhibitor solution. Assay plate was incubated at RT for 20 minutes, and then 2.5 uL of a 10× substrate/cofactor mix was added to each well for a final concentration of 50 uM estradiol and 1 mMNAD+. Assay plate was incubated at 37° C. for 3 hours. NAD(P)H-Glo™ Detection System reagents were prepared according to manufacturer's specifications, and 25 uL was added to each well. After incubating for 1 hour at RT, luminescence was measured.
As to `COCC1(c2ccc3c(cnn3-c3cc(O)c(F)c(F)c3)c2)CCN(S(C)(=O)=O)CC1` [Compound 28.02, 2,3-Difluoro-5-(5-(4-(meth-oxymethyl)-1-(methylsul-fonyl)piperidin-4-yl)-1H-indazol-1-yl)phenol], the IC50 lay in the range of 100 to 1000 nM.

`Cc1nn(-c2cc(C(F)(F)F)c(F)c(O)c2F)c2ccc(N(C)C3CCOCC3)nc12` [Compound 19.49, 2,6-Difluoro-3-(3-methyl-5-(methyl(tetrahydro-2H-pyran-4-yl)amino)-1H-pyrazolo[4,3-b]pyridine-1-yl)-5-(trifluoromethyl)phenol]: the IC50 was less than 100 nM.

For the compound `O=C(O)COc1ccc(-c2ccc3c(cnn3-c3ccc(F)c(O)c3)c2)cc1` [Compound 5.29, 2-(4-(1-(4-Fluoro-3-hydroxyphenyl)-1H-indazol-5-yl)phenoxy)acetic acid], the IC50 lay in the range of 1000 to 30000 nM.

Consider `CN(C)S(=O)(=O)C1CN(c2ccc3c(cnn3-c3cc(O)c(F)c(F)c3)c2)C1` [Compound 21.36, 1-(1-(3,4-Difluoro-5-hydroxy-phenyl)-1H-indazol-5-yl)-N,N-dimethylazetidine-3-sulfon-amide], for which the IC50 lay within 100 to 1000 nM.

Take `CC(C)S(=O)(=O)NC1CN(c2cc3cnn(-c4cc(O)c(F)c(F)c4)c3cc2Cl)C1` [Compound 21.33, N-(1-(6-Chloro-1-(3,4-difluoro-5-hydroxyphenyl)-1H-indazol-5-yl)azetidin-3-yl)propane-2-sulfonamide]: the IC50 lay within 100 to 1000 nM.

`Cc1nn(-c2cc(C(F)(F)F)c(F)c(O)c2F)c2cnc(N3CCO[C@@H](c4ccccc4)C3)cc12` [Compound 19.109, (S)-2,6-Difluoro-3-(3-methyl-5-(2-phenylmorpholino)-1H-pyrazolo[3,4-c]pyridin-1-yl)-5-(trifluoromethyl)phenol]: the IC50 lay in the range of 100 to 1000 nM.

As to `CS(=O)(=O)N1CCN(c2cc3cnn(-c4cc(C(F)(F)F)cc(O)c4F)c3cn2)CC1` [Compound 19.06, 2-Fluoro-3-(5-(4-(methylsulfonyl)piperazin-1-yl)-1H-pyrazolo[3,4-c]pyridine-1-yl)-5-(trifluoromethyl)phenol], the IC50 fell in the range of 100 to 1000 nM.

For `CS(=O)(=O)C1CCN(c2ccc3c(cnn3-c3cc(O)c(F)c(F)c3)c2)CC1` [Compound 21.06, 2,3-Difluoro-5-(5-(4-(methyl-sulfonyl)piperidin-1-yl)-1H-indazol-1-yl)phenol], the IC50 is 1000 to 30000 nM.

With `COc1nn(-c2cc(C(F)(F)F)c(F)c(O)c2F)c2ccc(N(C)C3CCOCC3)cc12` [Compound 19.72, 2,6-Difluoro-3-(3-methoxy-5-(methyl(tetrahydro-2H-pyran-4-yl)amino)-1H-indazol-1-yl)-5-(trifluoromethyl)phenol], the IC50 lay in the range of 100 to 1000 nM.

In the case of `O=S(=O)(Nc1ccc(-c2ccc3c(cnn3-c3ccc(F)c(O)c3)c2)cc1)c1ccccc1` [Compound 11.01, N-(4-(1-(4-Fluoro-3-hydroxyphenyl)-1H-indazol-5-yl)phenyl)benzenesulfonamide], the IC50 lay in the range of 100 to 1000 nM.

For the compound `Cc1nn(-c2cc(C(F)(F)F)c(F)c(O)c2F)c2ccc(N3CCOCC34CC4)nc12` [Compound 19.48, 2,6-Difluoro-3-(3-methyl-5-(7-oxa-4-azaspiro[2.5]octan-4-yl)-1H-pyrazolo[4,3-b]pyridine-1-yl)-5-(trifluoromethyl)phenol], the IC50 was in the range of 100 to 1000 nM.

Regarding `Oc1cc(-n2ncc3cc(N4CCOCC4)ncc32)cc(C(F)(F)F)c1F` [Compound 21.57, 2-Fluoro-5-(5-morpholino-1H-pyrazolo[3,4-c]pyridin-1-yl)-3-(trifluoromethyl)phenol], the IC50 lay in the range of 100 to 1000 nM.

`O=S1(=O)CCN(c2ccc3c(cnn3-c3cc(O)c(F)c(F)c3)c2)CC1` [Compound 21.08, 4-(1-(3,4-Difluoro-5-hydroxy-phenyl)-1H-indazol-5-yl)-thiomorpholine 1,1-dioxide]: the IC50 fell in the range of 1000 to 30000 nM.

Turning to `CS(=O)(=O)Nc1ccccc1-c1ccc2c(cnn2-c2ccc(F)c(O)c2)c1` [Compound 5.14, N-(2-(1-(4-Fluoro-3-hydroxyphenyl)-1H-indazol-5-yl)phenyl)methanesulfonamide], the IC50 fell in the range of 1000 to 30000 nM.

Turning to `CS(=O)(=O)N1CCN(c2cc3cn(-c4ccc(F)c(O)c4F)nc3cn2)CC1` [Compound 19.08, 2,6-Difluoro-3-(5-(4-(methylsulfonyl)piperazin-1-yl)-2H-pyrazolo[3,4-c]pyridine-2-yl)phenol], the IC50 is 1000 to 30000 nM.

With `CS(=O)(=O)N1CCN(c2cc3cnn(-c4cc(O)c(F)c(F)c4)c3cc2C2CC2)CC1` [Compound 21.49, 5-(6-Cyclopropyl-5-(4-(meth-ylsulfonyl)piperazin-1-yl)-1H-indazol-1-yl)-2,3-difluoro-phenol], the IC50 lay in the range of 100 to 1000 nM.

Consider `CS(=O)(=O)N1CCCN(c2ccc3c(cnn3-c3cc(O)c(F)c(F)c3)c2)CC1` [Compound 21.26, 2,3-Difluoro-5-(5-(4-(methyl-sulfonyl)-1,4-diazepan-1-yl)-1H-indazol-1-yl)phenol], for which the 50% inhibitory concentration (IC50) lay in the range of 100 to 1000 nM.

As to `CS(=O)(=O)N1CCN(c2cc3cnn(-c4cc(O)c(F)c(F)c4)c3cc2Cl)CC1` [Compound 21.13, 5-(6-Chloro-5-(4-(methyl-sulfonyl)piperazin-1-yl)-1H-indazol-1-yl)-2,3-difluoro-phenol], the IC50 was in the range of 100 to 1000 nM.

As to `CS(=O)(=O)N1CCN(c2cc3cnn(-c4cc(O)c(F)c(Cl)c4)c3cn2)CC1` [Compound 19.21, 3-Chloro-2-fluoro-5-(5-(4-(methylsulfonyl)piperazin-1-yl)-1H-pyrazolo[3,4-c]pyridine-1-yl)phenol], the IC50 was in the range of 100 to 1000 nM.

For the compound `CS(=O)(=O)N1CCC(CO)(c2ccc3c(cnn3-c3cc(O)c(F)c(F)c3)c2)CC1` [Compound 28.01], the IC50 was in the range of 1000 to 30000 nM.

On to `Cc1cccc(-c2ccc3c(cnn3-c3ccc(F)c(O)c3)c2)c1` [Compound 4.08, 2-Fluoro-5-(5-(m-tolyl)-1H-indazol-1-yl)phenol], for which the IC50 was 1000 to 30000 nM.

As to `CN(c1ccc2c(c1)c(F)nn2-c1cc(C(F)(F)F)c(F)c(O)c1F)C1CCOCC1` [Compound 21.58, 2,6-Difluoro-3-(3-fluoro-5-(methyl(tetrahydro-2H-pyran-4-yl)amino)-1H-indazol-1-yl)-5-(trifluoromethyl)phenol], the IC50 was 100 to 1000 nM.

Regarding `Cc1nn(-c2nc(C(F)(F)F)c(F)c(O)c2F)c2cnc(N3CCOCC34CC4)cc12` [Compound 19.119, 3,5-Difluoro-2-(3-methyl-5-(7-oxa-4-azaspiro[2.5]octan-4-yl)-1H-pyrazolo[3,4-c]pyridin-1-yl)-6-(trifluoromethyl)pyridin-4-ol], the IC50 was 1000 to 30000 nM.

With `Oc1cc(-n2ncc3cc(-c4ccc(O)c(Cl)c4)cnc32)ccc1F` [Compound 8.01, 2-Chloro-4-(1-(4-fluoro-3-hydroxyphenyl)-1H-pyrazolo[3,4-b]pyridine-5-yl)phenol], the IC50 was in the range of 100 to 1000 nM.

As for `Oc1ccc(-c2ccc3c(cnn3-c3cc(O)c(F)c(F)c3)c2)cn1` [Compound 16.03, 5-(1-(3,4-Difluoro-5-hydroxyphenyl)-1H-indazol-5-yl)pyridine-2-ol], the IC50 was in the range of 100 to 1000 nM.

The same experiment, now with this note: read-out: HSD17β13 inhibition at 30 uM.
Take `Cc1ccc(O)c(F)c1-n1ncc2cc(N3CCN(S(C)(=O)=O)CC3)ncc21` [Compound 19.43, 2-Fluoro-4-methyl-3-(5-(4-(methylsulfonyl)piperazin-1-yl)-1H-pyrazolo[3,4-c]pyridine-1-yl)phenol]: the inhibition at 30 µM stood at 45%.

For the origin of these results see patent US20240034736A1, “HSD17B13 INHIBITORS AND USES THEREOF” (FL2022-001, Inc., priority 2020, published 2024).
